In EP2201949A1 (World Trade Import-Export, WTIE A.G., priority 2007, dated 2009):

Tests used:
[1] = system: gout arthritis; type: in vivo, female Wistar rats; details: for Global anti-inflammatory and analgesic activity expressed in CT AUC: through 5 hours of assessment; for effect of used dose on walking capability / relaxation of the animals: rat, in vivo
Excerpt: PIFIR experimental model is a preclinical model wherein gout arthritis is possible to be determined in a rodent and the anti-inflammatory and analgesic efficacy of several drugs in animals with this alteration is compared. This experimental model has some important advantages regarding other preclinical methodologies: a) an alteration which clinically affects to humans is established in the rodent: gout type arthritis; b) temporary course of anti-inflammatory and analgesic effect may be determined along […] in the same experimental subject, without producing rodent conditioning factor or learning, being this a significant disadvantage in other experimental models; c) less test drug is consumed compared with other experimental models; d) anti-inflammatory and analgesic effect assessment is performed by computer and not depending on sometimes subjective observations.
Experiments were performed by using female Wistar rats having a weight of about 180 to 200 g. Animals were kept in a room with alternate light/darkness cycles. Food was withdrawn from rats twelve hours before experimentation, with water ad-libitum. All experiments were carried out during light time, the animals being used only once.
Animals were anesthesized in a glass desiccator saturated with […]. Gout arthritis was induced by applying a 0.05 ml intra-articular uric acid injection suspended in mineral oil in the right anterior limb, exactly on the femoral-tibio-rotular joint. A 1 ml glass syringe was used for intra-articular injection with a No. 22 4 mm long needle. An electrode was fixed immediately later in every anterior leg between the plantar calluses. Rats were left to recover from anesthesia and they were enclosed in a 30 cm diameter stainless steel rotary cylinder. Cylinder was rotated at 4 rpm, forcing to the rats to walk during 2 min every half hour, during 5 hours after total dysfunction.
Contact time was the measured variable at every anterior leg from the rats in the cylinder. When electrode is in contact with the cylinder a circuit is closed and the contact time ratio between injured to uninjured legs was registered in a computer.
Temporary courses for every treatment were determined during 5 continuous hours, using a "n" of 6 rats per treatment.

[2] = cited from earlier work
[3] = each compound 177.8 mg/kg, alone or combined
[4] = after being orally administered

## C[C@H]1C[C@H]2[C@@H]3CCC4=CC(=O)C=C[C@]4(C)[C@@]3(F)[C@@H](O)C[C@]2(C)[C@@]1(O)C(=O)CO [Betamethasone]
[1]; [3]
  Global anti-inflammatory and analgesic activity expressed in CT AUC: 31.6 ± 10.8 ua
[1]; each compound 177.8 mg/kg, single dose, alone or combined, CT over 5 hours
  time of maximum effect after delivery: 4.5 h
[1]; each compound 177.8 mg/kg, single dose, alone or combined, temporary course (CT) over 5 hours, n = 6 rats
  Maximum effect (anti-inflammatory and analgesic effect): 24.0 ± 11.9%
[1]
  effect of used dose on walking capability / relaxation of the animals: did not affect the walking rat capability

## COc1ccccc1OCC(O)COC(N)=O (stereo not drawn) [Methocarbamol]
[1]; [3]
  Global anti-inflammatory and analgesic activity expressed in CT AUC: 48.8 ± 21.0 ua
[1]
  effect of used dose on walking capability / relaxation of the animals: slight relaxation effect
[2]; [4]
  beginning of pharmacological action: ≤ 30 minutes
  total therapeutic action duration: about 24 hours
[2]; in vivo
  half-life: about 14 hours
